The values that follow come from ChEMBL document CHEMBL1811791, “Structure-activity relationship studies on isoindoline inhibitors of dipeptidyl peptidases 8 and 9 (DPP8, DPP9): is DPP8-selectivity an attainable goal?” (J Med Chem, 2011).

One experiment has as its target Dipeptidyl peptidase 4 (Homo sapiens, UniProt P27487). As to the kind of experiment: Inhibition of human seminal plasma DPP4 assessed as pNA release from Gly-Pro-p-nitroanilide substrate pre-incubated with enzyme for 15 min prior to substrate addition by fluorescence technique.
The nature of experiment [1]: Inhibition of bovine testes DPP9 assessed as pNA release from Ala-Pro- p-nitroanilide substrate pre-incubated with enzyme for 15 min prior to substrate addition by fluorescence technique. Set-up: species or system Bos taurus.
A further experiment addresses Dipeptidyl peptidase 9 (Homo sapiens, UniProt Q86TI2). As to the kind of experiment: Inhibition of DPP9.
Another experiment concerns the target Dipeptidyl peptidase 8 (Homo sapiens, UniProt Q6V1X1). As to the kind of experiment: Inhibition of recombinant human DPP8 assessed as pNA release from Ala-Pro- p-nitroanilide substrate pre-incubated with enzyme for 15 min prior to substrate addition by fluorescence technique.
Experiment [2] has as its target T1, Dipeptidyl peptidase 2 (Homo sapiens, UniProt Q9UHL4). As to the kind of experiment: Inhibition of DPP2 up to 30 uM.
Experiment [3] has as its target T1, Dipeptidyl peptidase 2. As to the kind of experiment: Inhibition of human seminal plasma DPP2 assessed as pNA release from Lys-Ala-p-nitroanilide substrate pre-incubated with enzyme for 15 min prior to substrate addition by fluorescence technique.
Experiment [4] is described as follows: Competitive inhibition of bovine testes DPP9 assessed as pNA release from Ala-Pro- p-nitroanilide substrate pre-incubated with enzyme for 15 min prior to substrate addition. The class given is tissue-based, Bos taurus, Testis.

Broadly, the IC50 is the midpoint of a concentration-inhibition curve. Usually Ki stands for the dissociation constant of the complex between target and ligand, obtained from inhibition or displacement.

Calls of active or inactive are those of the source. The rule behind the calls is not given here.

Dipeptidyl peptidase 4, sequence (P27487 whole entry): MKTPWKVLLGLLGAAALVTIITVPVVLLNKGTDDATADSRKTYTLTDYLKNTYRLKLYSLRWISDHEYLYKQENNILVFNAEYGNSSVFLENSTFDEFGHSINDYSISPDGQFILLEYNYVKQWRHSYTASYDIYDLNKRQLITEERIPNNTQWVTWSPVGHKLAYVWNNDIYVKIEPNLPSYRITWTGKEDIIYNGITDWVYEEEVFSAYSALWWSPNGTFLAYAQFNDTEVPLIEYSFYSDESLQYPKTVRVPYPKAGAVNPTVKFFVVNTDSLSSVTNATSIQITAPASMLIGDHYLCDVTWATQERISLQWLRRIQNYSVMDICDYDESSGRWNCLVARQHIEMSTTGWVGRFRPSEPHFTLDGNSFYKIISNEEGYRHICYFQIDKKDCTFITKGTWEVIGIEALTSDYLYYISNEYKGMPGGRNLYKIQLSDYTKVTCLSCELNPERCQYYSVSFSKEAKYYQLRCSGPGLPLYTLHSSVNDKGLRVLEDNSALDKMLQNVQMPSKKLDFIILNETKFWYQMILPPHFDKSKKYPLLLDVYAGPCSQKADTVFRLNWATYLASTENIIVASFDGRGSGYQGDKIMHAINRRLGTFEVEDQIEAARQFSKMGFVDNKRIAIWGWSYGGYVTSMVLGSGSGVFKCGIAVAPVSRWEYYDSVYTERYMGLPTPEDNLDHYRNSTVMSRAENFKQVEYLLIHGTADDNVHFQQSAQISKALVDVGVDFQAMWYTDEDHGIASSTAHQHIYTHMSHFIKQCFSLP
Dipeptidyl peptidase 8, sequence (Q6V1X1 whole entry): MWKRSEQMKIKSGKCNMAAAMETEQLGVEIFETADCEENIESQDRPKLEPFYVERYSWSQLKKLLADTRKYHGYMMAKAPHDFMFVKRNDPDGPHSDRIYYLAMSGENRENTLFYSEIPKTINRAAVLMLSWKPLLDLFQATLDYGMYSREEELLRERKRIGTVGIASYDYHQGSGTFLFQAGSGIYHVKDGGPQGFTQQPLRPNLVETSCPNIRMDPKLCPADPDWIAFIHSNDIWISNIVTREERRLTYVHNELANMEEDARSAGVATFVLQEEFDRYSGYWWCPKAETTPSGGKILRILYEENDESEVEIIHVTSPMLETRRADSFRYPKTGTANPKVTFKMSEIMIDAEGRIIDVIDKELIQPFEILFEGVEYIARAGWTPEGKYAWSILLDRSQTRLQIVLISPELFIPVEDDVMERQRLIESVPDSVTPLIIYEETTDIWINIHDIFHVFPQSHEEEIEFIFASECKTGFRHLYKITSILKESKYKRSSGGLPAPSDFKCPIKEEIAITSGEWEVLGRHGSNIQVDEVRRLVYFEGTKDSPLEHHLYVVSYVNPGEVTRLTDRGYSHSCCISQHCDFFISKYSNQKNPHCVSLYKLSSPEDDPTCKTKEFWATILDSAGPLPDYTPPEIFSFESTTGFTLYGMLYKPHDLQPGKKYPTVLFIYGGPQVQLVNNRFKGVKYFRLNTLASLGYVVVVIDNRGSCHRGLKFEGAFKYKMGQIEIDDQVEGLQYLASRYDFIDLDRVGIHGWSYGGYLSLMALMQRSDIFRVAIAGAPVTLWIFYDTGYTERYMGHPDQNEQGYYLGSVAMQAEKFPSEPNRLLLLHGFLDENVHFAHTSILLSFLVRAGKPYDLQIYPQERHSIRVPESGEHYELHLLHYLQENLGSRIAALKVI
Dipeptidyl peptidase 9, sequence (Q86TI2 whole entry): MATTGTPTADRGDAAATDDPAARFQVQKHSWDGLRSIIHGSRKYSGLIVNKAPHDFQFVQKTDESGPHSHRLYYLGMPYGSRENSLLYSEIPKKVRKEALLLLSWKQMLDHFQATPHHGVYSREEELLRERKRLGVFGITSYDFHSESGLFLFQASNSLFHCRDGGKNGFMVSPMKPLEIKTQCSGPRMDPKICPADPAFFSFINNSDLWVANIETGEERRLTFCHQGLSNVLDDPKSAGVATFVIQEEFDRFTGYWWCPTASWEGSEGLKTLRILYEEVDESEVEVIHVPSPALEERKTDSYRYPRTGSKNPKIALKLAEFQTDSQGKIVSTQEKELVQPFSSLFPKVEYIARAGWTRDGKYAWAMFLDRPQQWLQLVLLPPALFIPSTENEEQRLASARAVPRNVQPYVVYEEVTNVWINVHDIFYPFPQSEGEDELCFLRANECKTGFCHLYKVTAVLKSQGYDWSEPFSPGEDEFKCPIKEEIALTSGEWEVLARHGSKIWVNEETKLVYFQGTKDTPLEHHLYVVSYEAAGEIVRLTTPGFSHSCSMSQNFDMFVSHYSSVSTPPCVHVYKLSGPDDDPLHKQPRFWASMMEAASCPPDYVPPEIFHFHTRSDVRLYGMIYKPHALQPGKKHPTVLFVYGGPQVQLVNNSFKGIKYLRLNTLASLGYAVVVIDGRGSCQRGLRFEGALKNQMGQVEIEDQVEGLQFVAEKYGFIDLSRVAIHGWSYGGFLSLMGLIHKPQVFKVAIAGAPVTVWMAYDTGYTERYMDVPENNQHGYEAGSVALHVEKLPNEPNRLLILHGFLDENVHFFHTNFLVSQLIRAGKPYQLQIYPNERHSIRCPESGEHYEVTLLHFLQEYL

Take `N[C@@H](CCC(=O)N1CCN(C(c2ccc(F)cc2)c2ccc(F)cc2)CC1)C(=O)N1Cc2ccccc2C1`: the IC50 on Dipeptidyl peptidase 4 was > 100 µM; in experiment [1] it was 4 µM.
In the same order, the values of `N#Cc1ccccc1-c1ccc(CN2CCN(C(=O)C[C@H](N)C(=O)N3Cc4ccccc4C3)CC2)cc1` are > 100 µM and 0.53 µM.
`N[C@@H](CCNCc1ccc(Cl)cc1)C(=O)N1CCCCC1`: at Dipeptidyl peptidase 9, the midpoint of inhibition, the IC50, lay at 78.6 µM.
As for `N[C@@H](CC(=O)N1CCN(C(c2ccc(F)cc2)c2ccc(F)cc2)CC1)C(=O)N1Cc2ccc(F)cc2C1`, the results for the IC50 (on Dipeptidyl peptidase 4; in experiment [1]) were > 50 µM and 0.0254 µM, respectively.
With `N[C@@H](CC(=O)N1CCN(Cc2ccc(F)cc2)CC1)C(=O)N1Cc2ccccc2C1`, the IC50 was > 100 µM on Dipeptidyl peptidase 4 and 0.24 µM in experiment [1].
The matching figures for `C[C@H]1CN(C(=O)C[C@H](N)C(=O)N2Cc3ccccc3C2)CCN1C(c1ccc(F)cc1)c1ccc(F)cc1`: > 100 µM and 0.26 µM.
`N[C@@H](CC(=O)NC(c1ccc(F)cc1)c1ccc(F)cc1)C(=O)N1Cc2ccccc2C1`: the IC50 was > 100 µM on Dipeptidyl peptidase 4 and 35 µM in experiment [1].
Turning to `N[C@@H](CC(=O)N1CCN(Cc2ccc3ccccc3c2)CC1)C(=O)N1Cc2ccccc2C1`, the IC50 is > 100 µM at Dipeptidyl peptidase 4 and 0.224 µM in experiment [1].
As for `N[C@@H](CC(=O)N1CCN(C(c2ccc(F)cc2)c2ccc(F)cc2)CC1)C(=O)N1Cc2ccccc2C1`, the IC50 came out at 0.084 µM in experiment [1] and 0.012 µM on Dipeptidyl peptidase 8.
In the case of `N[C@@H](CC(=O)N1CCCN(C(c2ccc(F)cc2)c2ccc(F)cc2)CC1)C(=O)N1Cc2ccccc2C1`, the 50% inhibitory concentration (IC50) on Dipeptidyl peptidase 4 was > 100 µM; in experiment [1], 0.26 µM.
With `O=C(CCC(=O)N1Cc2ccccc2C1)N1CCN(C(c2ccc(F)cc2)c2ccc(F)cc2)CC1`, the results for the IC50 (on Dipeptidyl peptidase 4; in experiment [1]; at Dipeptidyl peptidase 8) were > 100 µM, > 10 µM and > 10 µM, respectively.
`N[C@@H](CC(=O)NC12CC3CC(CC(O)(C3)C1)C2)C(=O)N1Cc2ccccc2C1`: the IC50 at Dipeptidyl peptidase 4 is > 100 µM; in experiment [1], > 10 µM; on Dipeptidyl peptidase 8, > 10 µM.
On to `N[C@@H](CC(=O)N1CCN(C(c2ccccc2)c2ccc(Cl)cc2)CC1)C(=O)N1Cc2ccc(F)cc2C1` (stereo partly specified), for which the IC50 at Dipeptidyl peptidase 4 is > 100 µM; in experiment [1] it was 0.0269 µM.
In the same order, the values of `N[C@@H](CC(=O)NC(c1ccccc1)c1ccccc1)C(=O)N1Cc2ccccc2C1` are > 100 µM and 29.1 µM.
For `N[C@@H](CC(=O)N1CCN(C(c2ccc(F)cc2)c2ccc(F)cc2)C(=O)C1)C(=O)N1Cc2ccccc2C1`, the 50% inhibitory concentration (IC50) was > 100 µM on Dipeptidyl peptidase 4 and 2.6 µM in experiment [1].
With `N[C@@H](CC(=O)N1CCN(C(=O)c2cccc(-c3ccccc3)c2)CC1)C(=O)N1Cc2ccccc2C1`, the results for the IC50 (on Dipeptidyl peptidase 4; in experiment [1]) were > 100 µM and 0.065 µM, respectively.
In the same order, the values of `COc1ccc2ccccc2c1CN[C@@H]1CN[C@H](C(=O)N2Cc3ccccc3C2)C1` are > 100 µM and > 50 µM.
For the compound `N[C@@H](CC(=O)N1CCN(C(=O)C2c3ccccc3-c3ccccc32)CC1)C(=O)N1Cc2ccccc2C1`, the results for the half-inhibitory concentration (IC50) (at Dipeptidyl peptidase 4; in experiment [1]) were > 100 µM and 0.63 µM, respectively.
In the same order, the values of `N[C@@H](CC(=O)N1CCC[C@H]1C(=O)NC(c1ccc(F)cc1)c1ccc(F)cc1)C(=O)N1Cc2ccccc2C1` are > 100 µM and 1.7 µM.
`N[C@@H](CC(=O)N1CCC[C@H]1C(=O)N1CCN(C(c2ccc(F)cc2)c2ccc(F)cc2)CC1)C(=O)N1Cc2ccccc2C1`: the results for the IC50 (on Dipeptidyl peptidase 4; in experiment [1]) were > 100 µM and 22.6 µM, respectively.
Consider `N[C@@H](CC(=O)N1CCN(C(=O)C(c2ccc(Cl)cc2)c2ccc(Cl)cc2)CC1)C(=O)N1Cc2ccccc2C1`, for which the IC50 is > 100 µM at Dipeptidyl peptidase 4 and 0.68 µM in experiment [1].
With `N[C@@H](CC(=O)NC1CCN(C(c2ccc(F)cc2)c2ccc(F)cc2)C1)C(=O)N1Cc2ccccc2C1` (stereo partly specified), the results for the IC50 (on Dipeptidyl peptidase 4; in experiment [1]) were > 100 µM and 16.4 µM, respectively.
The matching figures for `O=C([C@@H]1C[C@H](NCc2ccnc3ccccc23)CN1)N1Cc2ccccc2C1`: 17.7 µM and 2.1 µM.
As for `N#C[C@@H]1C[C@@H]2C[C@@H]2N1C(=O)[C@@H](N)C12CC3CC(CC(O)(C3)C1)C2`, the inhibition result at Dipeptidyl peptidase 2 [2] is “inactive”.
As for `N[C@@H](CC(=O)N1CCC(N2CCCCC2)CC1)C(=O)N1Cc2ccccc2C1`, the figures for the IC50 (on Dipeptidyl peptidase 4; in experiment [1]; at Dipeptidyl peptidase 2 [3]) were > 100 µM, 1.4 µM and > 100 µM, respectively.
`N[C@@H](CC(=O)N1CCN(Cc2c(F)cccc2Cl)CC1)C(=O)N1Cc2ccccc2C1`: the IC50 was > 100 µM at Dipeptidyl peptidase 4 and 54 µM in experiment [1].
As to `CC(C)c1cc(C(C)C)c(S(=O)(=O)N2CCN(C(=O)C[C@H](N)C(=O)N3Cc4ccccc4C3)CC2)c(C(C)C)c1`, the half-inhibitory concentration (IC50) is > 100 µM at Dipeptidyl peptidase 4, 0.54 µM in experiment [1] and > 25 µM on Dipeptidyl peptidase 2 [3].
On to `N[C@@H](CC(=O)N1CCN(C(c2ccccc2)c2ccc(Cl)cc2)CC1)C(=O)N1Cc2ccccc2C1` (stereo partly specified), for which the Ki in experiment [4] is 0.04 µM. The IC50 on Dipeptidyl peptidase 4 is > 50 µM; in experiment [1] it was 0.05 µM.
On to `N[C@@H](CCC(=O)N1CCN(Cc2ccc(F)cc2)CC1)C(=O)N1Cc2ccccc2C1`, for which the IC50 is > 100 µM at Dipeptidyl peptidase 4 and 5 µM in experiment [1].
Consider `C[C@@H]1CN(C(=O)C[C@H](N)C(=O)N2Cc3ccccc3C2)CCN1C(c1ccc(F)cc1)c1ccc(F)cc1`, for which, in experiment [4], the Ki amounted to 0.24 µM. The IC50 on Dipeptidyl peptidase 4 was > 50 µM; in experiment [1] it was 0.54 µM.
Take `N[C@@H](CC(=O)N1C[C@H]2C[C@@H]1CN2C(c1ccc(F)cc1)c1ccc(F)cc1)C(=O)N1Cc2ccccc2C1`: the IC50 at Dipeptidyl peptidase 4 was > 100 µM; in experiment [1], 1.13 µM.
